# Columns and labels:
# [1] = biological target: 264 peptide/HLA-A2 complexes on the surface of the human B lymphoid cell line T2 (Homo sapiens, UniProt P04439+P04637, D140Y/D185E/D98H/E176V/E277Q/G131W/G231S/I119V/I121R/I166T/I218V/L300P/L318F/N151K/N90K/P208A/P217A/Q86G/Q94H/R138H/R169H/T345S); assay: Flow cytometry / immunofluorescence staining of peptide-pulsed T2 cells with fusion protein (264 peptide); format: binding; details: 0.5 μg (10 μg/ml) fusion protein; T2 cells pulsed with 264 peptide
# Protocol: (§1) Flow cytometry and immunofluoresence staining were used to show direct binding of the fusion protein via its TCR to peptide/HLA-A2 complexes on the surface of the human B lymphoid cell line T2 (FIG. 4) • A) Staining of 149 or 264 peptide pulsed T2 cells with 0.5 μg (10 μg/ml) of 264 scTCR-IL-2 fusion protein. […] To evaluate A2 loading of each peptide, the cells were stained with the HLA-A2 specific mAb BB7.2 […] after overnight incubation of the cells with peptide.
# [2] = biological target: T1, 149 peptide/HLA-A2 complexes on the surface of the human B lymphoid cell line T2 (Homo sapiens, UniProt P04439+P04637, D140Y/D185E/D98H/E176V/E277Q/G131W/G231S/I119V/I121R/I166T/I218V/L300P/L318F/N151K/N90K/P208A/P217A/Q86G/Q94H/R138H/R169H/T345S); assay: Flow cytometry / immunofluorescence staining of peptide-pulsed T2 cells with fusion protein (149 peptide); format: binding; details: 0.5 μg (10 μg/ml) fusion protein; T2 cells pulsed with 149 peptide
# T1 construct: on the surface of the human B lymphoid cell line T2; endogenous in cells; host or cells: T2 cells pulsed with 149 peptide
# Protocol: as §1
# [3] = tested on: CTLL-2 cells and 264 peptide-loaded T2 cells; assay: Cell-cell conjugation assay, CTLL-2 cells with 264 peptide-loaded T2 cells, flow cytometer; format: cell-based, murine CTLL-2, human T2
# Protocol: (§2) In this experiment, T2 cells pulsed with either the 149 or 264 peptide. CTLL-2 cells were hydrodiethidium (HE) labeled and incubated for 20 minutes at RT with an equal number of calcein-AM labeled T2 cells pulsed with either 50 μg of 149 or 264 peptide. […] In contrast, conjugate formation was not observed with the mixture that included the 149 peptide pulsed T2 cells (B; 0.88%). Cell samples were washed one time before analysis on the flow cytometer.
# [4] = tested on: CTLL-2 cells and 149 peptide pulsed T2 cells; assay: Cell-cell conjugation assay, CTLL-2 cells with 149 peptide pulsed T2 cells, flow cytometer; format: cell-based, murine CTLL-2, human T2; details: fusion protein; HE-labeled CTLL-2 and calcein-AM labeled T2 pulsed with 50 μg 149 peptide; 20 minutes at RT
# Protocol: as §2
# HLA-A2 = biological target: T2, HLA-A2 (Homo sapiens, UniProt P04439, D140Y/D185E/D98H/E176V/E277Q/G131W/G231S/I119V/I121R/I166T/I218V/L300P/L318F/N151K/N90K/P208A/P217A/Q86G/Q94H/R138H/R169H/T345S); assay: HLA-A2 loading of peptide on T2 cells, staining with HLA-A2 specific mAb BB7.2; format: cell-based; details: T2 cells pulsed with 50 μg peptide overnight; BB7.2 staining
# T2 construct: HLA-A2 surface expression on T2 cells; endogenous in cells; host or cells: T2 cells
# Protocol: as §1
Substance,binding of fusion protein to T2 cells displaying the 264 peptide [1],binding of fusion protein to T2 cells displaying the 149 peptide [2],"conjugation between cells (conjugate formation) ([3]; 1 Ag of fusion protein, HE-labeled CTLL-2 and calcein-AM labeled T2 pulsed with 50 μg 264 peptide, 20 minutes at RT) [%]",conjugation between a T cell and an antigen presenting cell pulsed with the correct peptide ([3]; restatement of example 11),conjugation between cells (conjugate formation) [4] [%],HLA-A2 binding of peptide (HLA-A2 surface expression on pulsed T2 cells) (HLA-A2)
264 scTCR-IL-2 fusion protein: soluble 264 single-chain TCR covalently linked to human IL-2 with EE peptide tag,binds specifically,not,3.25,able to mediate conjugation,0.88,–
LLGRNSFEV [264 peptide],–,–,–,–,–,efficient HLA-A2 binding

# Source: patent US20180086810A1, “T CELL RECEPTOR FUSIONS AND CONJUGATES AND METHODS OF USE THEREOF” (ALTOR BIOSCIENCE CORPORATION, priority 2000, published 2018)
